Test results as given in paper PMC9554468, “Assessing potency and binding kinetics of soluble adenylyl cyclase (sAC) inhibitors to maximize therapeutic potential” (Frontiers in Physiology, 2022).
Several values for one entry are separate records, joined by “and”; a condition that tells them apart may be missing. Equal values may be shown once.

Target: T1, sAC in 4-4 cells (HEK293 cells that stably overexpress sACt) (Rattus norvegicus, UniProt Q9Z286)
T1 construct: HEK293 cells that stably overexpress sACt; expressed in transfected cells
T1 sequence (Q9Z286 1-469 limits assumed): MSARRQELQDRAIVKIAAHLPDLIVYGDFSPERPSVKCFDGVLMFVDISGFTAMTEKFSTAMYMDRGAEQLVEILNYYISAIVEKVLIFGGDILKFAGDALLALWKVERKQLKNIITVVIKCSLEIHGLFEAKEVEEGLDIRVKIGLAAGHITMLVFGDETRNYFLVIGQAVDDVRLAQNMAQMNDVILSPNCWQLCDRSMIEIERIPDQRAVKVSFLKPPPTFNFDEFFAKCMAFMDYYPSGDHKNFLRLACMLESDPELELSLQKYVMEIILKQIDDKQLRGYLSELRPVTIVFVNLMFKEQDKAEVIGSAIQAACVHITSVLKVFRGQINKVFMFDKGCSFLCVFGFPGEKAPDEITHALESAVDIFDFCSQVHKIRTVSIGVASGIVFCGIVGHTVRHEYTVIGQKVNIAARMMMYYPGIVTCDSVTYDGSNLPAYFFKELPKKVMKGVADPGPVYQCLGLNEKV
Assay: cellular adenylyl cyclase activity assay (cAMP accumulation) in sAC overexpressing 4-4 cells
Format: cell-based, human
Conditions: 10 min preincubation, 500 μM IBMX 5 min, 37°C
Description: For the assay, 1 × 10^5 4-4 cells were seeded in each well of a 24-well plate and incubated for 24 h in DMEM+10% FBS media at 37°C/5% CO2. One hour before the assay the media was aspirated and replaced with 300 μL fresh media. Cells were preincubated with sAC inhibitor at the indicated concentrations or vehicle (0.7% DMSO) for 10 min at 37°C. Intracellular cAMP accumulation was initiated by addition of 500 μM IBMX (Sigma-Aldrich), and cAMP was allowed to accumulate for 5-min. Intracellular cAMP was quantitated using the Direct cAMP Elisa kit (Enzo Life Sciences) following manufacturer’s instructions. GraphPad Prism (www.graphpad.com, version 9.3.1) was used for curve fitting of the concentration-response data and determination of IC50 values.
In addition to how tightly an inhibitor binds its target, efficacy against an intracellular enzyme target is also determined by factors that are present only in the context of cells, such as membrane permeability, non-specific protein binding and compound stability in media and inside cells.

How did the IC50 turn out when `Cn1cc(Cc2ccccc2OCCN2CCOCC2)c(-c2cc(Cl)nc(N)n2)n1` [TDI-11155] was run?
Its IC50 is 15.7 nM and 16 nM.

With `COC(=O)[C@H]1COCCN1CCOc1ccccc1Cc1cn(C(F)F)nc1-c1cc(Cl)nc(N)n1` [TDI-11891] as the compound, how does the IC50 read?
The IC50 was 2.3 nM.

For `COC(=O)[C@@H]1COCCN1CCOc1ccccc1Cc1cn(C(F)F)nc1-c1cc(Cl)nc(N)n1` [TDI-11893], which IC50 is on record?
The IC50 was 19.4 nM and 19 nM.
